In patent US6436630B1, “Method for testing the toxicity of chemical substances using gastropods” (priority 1998, dated 2002):
Where two headings read alike, the source gives them in different places.

Columns and labels:
[1] = tested on: foot mucosa of slugs (species Arion); assay: Slug mucosal toxicity test, Example 1 (15 min daily treatment, five days); format: in vivo; details: for % WL, reduction in weight (weight loss) caused by the 15 minute treatment as % of initial body weight of the day / % MP, mucus production as % of the body weight at the start of the day before the treatment: 1% w/v in PBS; for % MP, mucus production as % of the body weight at the start of the day before the treatment / ALP released into PBS / LDH released into PBS / Protein released into PBS: 15 min; for ALP released into PBS / LDH released into PBS / Protein released into PBS: total mean of 7 samples/day per slug
From the text: Initially, the slugs are kept on a culture under controlled conditions of temperature and humidity until they have reached a stable body weight. The purpose of achieving a stable body weight is to improve the reproducibility of the results, particularly as the release of substances from the slugs may conveniently be measured in terms of the body weight thereof. The slugs are then isolated from the culture and placed in a vented plastic box lined with moist paper towel and placed at 95% relative humidity at 20° C. seven days before the start of an experiment. The slugs were not bred in any particular way, i.e. they were wild slugs. It is anticipated that even more accurate and reproducible results can be obtained by selective breeding of the slugs, although as shown by the test results this is not a necessary requirement of the present invention to obtain accurate and useful data.
The test procedure is simple and rapid. The chemical substance to be tested is applied directly to the mucosal membrane of a slug, e.g. to the foot, by placing the slug individually in a petri dish containing the test substance. Slugs treated with phosphate buffered saline are used as a negative control. As a positive control slugs treated with a known toxic substance, benzalkonium chloride, were used.
Because the mucosal epithelium of interest is located at the outside of the slug the effect of substances can be easily observed. […] This can also be simply measured by weighing the petri dish before and after the treatment of the slugs with the chemical substance (with the slugs removed in each case). Additionally an indirect response to epithelial damage caused by a chemical substance may be determined by the reduction of the body weight of the slugs due to the leakage of haemolymphatic fluids through the damaged foot surface.
After the treatment the slugs are transferred individually to a fresh petri dish containing phosphate buffered saline. After a suitable exposure time, e.g. 1 hour the phosphate buffered saline is collected and analysed for the presence of proteins and/or enzymes, e.g. lactate dehydrogenase and/or alkaline phosphatase, or other marker substances released from the foot or epithelium of the slug, for example membrane associated components such as phospholipids or cholesterol. This procedure can be repeated after periods of several hours in order to determine the reversibility of the cell damage caused by the test chemical substance. The concentration or amount of the chemical substance to be tested can be changed and the influence of the concentration can be easily examined. The exposure time can also be changed if required. The slugs can be treated during several successive days in order to investigate the subchronical effect of substances on the foot mucosa.
Seven days before the start of the experiment the slugs were isolated in a plastic box lined with moist paper towel and placed at 95% relative humidity at 20° C. As test substances didecanyol-L-α-phosphatidylcholine (DDPC) and sodium deoxycholate (SDC) were selected. Benzalkonium chloride (1% w/v), SDC (1% w/v) and DDPC (1%, w/v) were prepared in phosphate buffered saline (PBS, pH 7.4). […] During the test the slugs are preferably kept in a generally calm and normal state and are not subjected to mechanical vibrations or mechanical or electrical disturbances which may affect mucus production.
The enzymes (lactate dehydrogenase (LDH) and alkaline phosphatase (ALP)) and total protein released into the PBS were determined. The slugs were weighed before and after the incubation period to determine the body weight changes. The mucus production was measured by weighing the petri dishes before and after the treatment with a test substance. The results are shown in Table 1 and shown graphically in FIGS. 1 to 5.

[2] = tested on: foot mucosa of slugs of species Arion; format: in vivo
[3] = tested on: foot mucosa of slugs of species Limax; format: in vivo; details: for % MP, mucus production as % of the body weight at the start of the day before the treatment: 1% w/v (HPβCD 5% w/v) in PBS, 15 min; for ALP released into PBS / LDH released into PBS / Protein released into PBS: 1% w/v (HPβCD 5% w/v), total mean of 7 samples/day per slug
Method: Slugs of the species Limax are terrestial slugs have lungs and also a small internal shell. As test substances hydroxypropyl-β-cyclodextrin (HPβCD), sodium tauro-24,25-dihdrofiisidate (STDHF) and sodium deoxycholate were selected. Benzalkonium chloride (1% w/v), HPβCD (5% w/v), STDHF (1% w/v) and SDC (1% w/v) were prepared in phosphate buffered saline (PBS, pH 7.4).
The enzymes lactate dehydrogenase (LDH) and alkaline phosphatase (ALP) and total protein released into the PBS were determined. The change in body weight and mucus production caused by the treatment were examined.

[4] = tested on: foot mucosa of slugs of species Arion; assay: Slug mucosal toxicity test, Example 2 (15 min daily treatment, four days); details: for % WL, weight loss as reduction in body weight caused by the 15 minutes of treatment / % MP, mucus production as % of the body weight at the start of the day before the treatment: 1% w/v in PBS; for % MP, mucus production as % of the body weight at the start of the day before the treatment / ALP released into PBS / LDH released into PBS / Protein released into PBS: 15 min; for ALP released into PBS / LDH released into PBS / Protein released into PBS: 1% w/v, total mean of 3 samples/day per slug
Method: As test substance a β-blocking agent propranolo HCl (1% w/v) was used. Benzalkonium chloride (1% w/v) and Propranolol (1% w/v) were prepared in PBS (pH 7.4). The slugs were daily incubated during 15 min with the test solution during four days. After the incubation period the slugs were placed on 500 μL PBS in a petri dish. The PBS was sampled every hour and refreshed with 500 μL PBS for 3 hours after the treatment.
The enzymes (LDH, ALP) and the total protein released into the PBS were determined. The change in body weight and the mucus production caused by the treatment were examined.

sodium deoxycholate [SDC]
membrane damage (in words) ([1]; 1% w/v, 15 min daily, five days): severe membrane damage
% WL, reduction in weight (weight loss) caused by the 15 minute treatment as % of initial body weight of the day ([1]; day 1): 12.73%
% MP, mucus production as % of the body weight at the start of the day before the treatment ([1]; day 1): 7.6%
ALP released into PBS ([1]; day 1, 1% w/v): 13.49 U/L
LDH released into PBS ([1]; day 1, 1% w/v): 14.07 U/L
Protein released into PBS ([1]; day 1, 1% w/v): 19.92 μg/30 μL
% WL, reduction in weight (weight loss) caused by the 15 minute treatment as % of initial body weight of the day ([1]; day 2): 12.60%
% MP, mucus production as % of the body weight at the start of the day before the treatment ([1]; day 2): 10.7%
ALP released into PBS ([1]; day 2, 1% w/v): 43.02 U/L
LDH released into PBS ([1]; day 2, 1% w/v): 93.01 U/L
Protein released into PBS ([1]; day 2, 1% w/v): 22.84 μg/30 μL
% WL, reduction in weight (weight loss) caused by the 15 minute treatment as % of initial body weight of the day ([1]; day 3): 8.06%
% MP, mucus production as % of the body weight at the start of the day before the treatment ([1]; day 3): 5.5%
ALP released into PBS ([1]; day 3, 1% w/v): 103.56 U/L
LDH released into PBS ([1]; day 3, 1% w/v): 135.93 U/L
Protein released into PBS ([1]; day 3, 1% w/v): 38.95 μg/30 μL
% WL, reduction in weight (weight loss) caused by the 15 minute treatment as % of initial body weight of the day ([1]; day 4): 11.28%
% MP, mucus production as % of the body weight at the start of the day before the treatment ([1]; day 4): 7.6%
ALP released into PBS ([1]; day 4, 1% w/v): 42.22 U/L
LDH released into PBS ([1]; day 4, 1% w/v): 146.89 U/L
Protein released into PBS ([1]; day 4, 1% w/v): 54.76 μg/30 μL
% WL, reduction in weight (weight loss) caused by the 15 minute treatment as % of initial body weight of the day ([1]; day 5): 8.03%
% MP, mucus production as % of the body weight at the start of the day before the treatment ([1]; day 5): 2.6%
ALP released into PBS ([1]; day 5, 1% w/v): 22.98 U/L
LDH released into PBS ([1]; day 5, 1% w/v): 136.19 U/L
Protein released into PBS ([1]; day 5, 1% w/v): 55.59 μg/30 μL
ranking order of increasing toxicity ([2]; Arion): PBS, 5% HPβCD<1% STDHF<1% SDC and 1% BAC
membrane damage (in words) ([2]; Arion, 1% w/v (SDC data in Table 1, Example 1)): severe membrane damage
reduction in body weight to % of the initial weight ([2]; Arion, 1% w/v, five days (SDC data from Example 1)): about 50%
ranking order of increasing toxicity ([3]; Limax): PBS, 5% HPβCD<1% STDHF<1% SDC and 1% BAC
membrane damage (in words) ([3]; Limax, 1% w/v): severe membrane damage
reduction in body weight to % of the initial weight ([3]; Limax, 1% w/v, five days): about 50%
% MP, mucus production as % of the body weight at the start of the day before the treatment ([3]; day 1, Limax): 11.16%
ALP released into PBS ([3]; day 1, Limax): 11.62 U/L
LDH released into PBS ([3]; day 1, Limax): 9.01 U/L
Protein released into PBS ([3]; day 1, Limax): 10.1 μg/30μL
% MP, mucus production as % of the body weight at the start of the day before the treatment ([3]; day 2, Limax): 10.27%
ALP released into PBS ([3]; day 2, Limax): 3.34 U/L
LDH released into PBS ([3]; day 2, Limax): 13.6 U/L
Protein released into PBS ([3]; day 2, Limax): 15.78 μg/30μL
% MP, mucus production as % of the body weight at the start of the day before the treatment ([3]; day 3, Limax): 13.01%
ALP released into PBS ([3]; day 3, Limax): 2.62 U/L
LDH released into PBS ([3]; day 3, Limax): 26.15 U/L
Protein released into PBS ([3]; day 3, Limax): 18.04 μg/30μL
% MP, mucus production as % of the body weight at the start of the day before the treatment ([3]; day 4, Limax): 19.38%
ALP released into PBS ([3]; day 4, Limax): 6.24 U/L
LDH released into PBS ([3]; day 4, Limax): 85.8 U/L
Protein released into PBS ([3]; day 4, Limax): 35.04 μg/30μL
% MP, mucus production as % of the body weight at the start of the day before the treatment ([3]; day 5, Limax): 8.11%
ALP released into PBS ([3]; day 5, Limax): 28.79 U/L
LDH released into PBS ([3]; day 5, Limax): 145.71 U/L
Protein released into PBS ([3]; day 5, Limax): 88.14 μg/30μL

Benzalkonium chloride
membrane damage (in words) ([1]; in vivo): severe membrane damage
% WL, weight loss as reduction in body weight caused by the 15 minutes of treatment ([4]; day 1): 7.17%
% MP, mucus production as % of the body weight at the start of the day before the treatment ([4]; day 1): 3.28%
ALP released into PBS ([4]; day 1): 0.56 U/L
LDH released into PBS ([4]; day 1): 1.92 U/L
Protein released into PBS ([4]; day 1): 8.36 μg/30 μL
% WL, weight loss as reduction in body weight caused by the 15 minutes of treatment ([4]; day 2): 4.32%
% MP, mucus production as % of the body weight at the start of the day before the treatment ([4]; day 2): 2.75%
ALP released into PBS ([4]; day 2): 3.42 U/L
LDH released into PBS ([4]; day 2): 6.27 U/L
Protein released into PBS ([4]; day 2): 4.08 μg/30 μL
% WL, weight loss as reduction in body weight caused by the 15 minutes of treatment ([4]; day 3): 2.87%
% MP, mucus production as % of the body weight at the start of the day before the treatment ([4]; day 3): 2.35%
ALP released into PBS ([4]; day 3): 5.64 U/L
LDH released into PBS ([4]; day 3): 8.11 U/L
Protein released into PBS ([4]; day 3): 11.69 μg/30 μL
% WL, weight loss as reduction in body weight caused by the 15 minutes of treatment ([4]; day 4): 3.61%
% MP, mucus production as % of the body weight at the start of the day before the treatment ([4]; day 4): 3.09%
ALP released into PBS ([4]; day 4): 15.59 U/L
LDH released into PBS ([4]; day 4): 48.65 U/L
Protein released into PBS ([4]; day 4): 11.79 μg/30 μL
membrane damage (in words) ([2]; in vivo): severe membrane damage
ranking order of increasing toxicity ([2]; in vivo): PBS, 5% HPβCD<1% STDHF<1% SDC and 1% BAC
reduction in body weight to % of the initial weight ([2]; in vivo): about 50%
membrane damage (in words) ([3]; in vivo): severe membrane damage
ranking order of increasing toxicity ([3]; in vivo): PBS, 5% HPβCD<1% STDHF<1% SDC and 1% BAC
reduction in body weight to % of the initial weight ([3]; in vivo): about 50%
